Data published in patent publication US11542259B2, “Compounds for the treatment of kinase-dependent disorders” (Exelixis, Inc., priority 2018, dated 2023).

What was measured:
[1] = target: Human Axl (residues H473-A894 with Q764R) (Homo sapiens (Human), UniProt P30530, Q764R); test: Human AXL kinase assay (33P radiometric, KinaseProfiler); assay type: biochemical; details: 10 μM ATP
AXL = AXL (Homo sapiens (Human), UniProt P30530); test: AXL autophosphorylation ELISA in A-172 cells; assay type: cell-based; details: cellular, Gas6 stimulated
Chain of AXL (P30530 26-894): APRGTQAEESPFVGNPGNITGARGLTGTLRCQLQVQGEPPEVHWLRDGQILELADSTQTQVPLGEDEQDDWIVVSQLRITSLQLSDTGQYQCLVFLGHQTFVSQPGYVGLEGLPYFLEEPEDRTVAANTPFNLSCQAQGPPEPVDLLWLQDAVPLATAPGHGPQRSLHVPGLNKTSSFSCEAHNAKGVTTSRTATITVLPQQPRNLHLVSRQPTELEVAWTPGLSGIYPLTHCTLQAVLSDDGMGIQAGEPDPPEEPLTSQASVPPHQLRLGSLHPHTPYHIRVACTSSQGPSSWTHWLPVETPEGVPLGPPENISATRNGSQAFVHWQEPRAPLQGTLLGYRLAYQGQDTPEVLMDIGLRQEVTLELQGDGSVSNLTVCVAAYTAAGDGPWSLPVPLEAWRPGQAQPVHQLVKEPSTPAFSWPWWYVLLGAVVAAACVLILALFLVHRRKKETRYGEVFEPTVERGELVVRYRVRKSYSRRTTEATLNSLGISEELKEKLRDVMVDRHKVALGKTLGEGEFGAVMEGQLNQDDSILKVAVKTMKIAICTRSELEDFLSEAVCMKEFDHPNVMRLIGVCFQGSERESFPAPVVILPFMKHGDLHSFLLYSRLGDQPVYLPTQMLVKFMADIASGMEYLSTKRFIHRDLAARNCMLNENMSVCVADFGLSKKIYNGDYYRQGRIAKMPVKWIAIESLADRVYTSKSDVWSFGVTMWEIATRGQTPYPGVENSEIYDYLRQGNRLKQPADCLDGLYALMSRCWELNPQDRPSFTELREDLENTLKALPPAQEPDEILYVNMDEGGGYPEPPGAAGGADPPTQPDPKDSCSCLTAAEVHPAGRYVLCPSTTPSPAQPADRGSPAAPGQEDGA
Procedure, shortened: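 Serum-starved (24 h) A-172 glioblastoma cells pretreated 1 h with compounds (8-point curve, 0.3% DMSO), then stimulated 15 min with 1 μg/mL Gas6. Lysate phospho-AXL measured by sandwich ELISA against a phospho-AXL standard; IC50 from 4-parameter logistic fit between DMSO and reference-inhibitor controls.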

KDR = KDR (Homo sapiens (Human), UniProt P35968); test: KDR autophosphorylation ELISA in HUVEC cells; assay type: cell-based; details: cellular, VEGF165 stimulated
Chain of KDR (P35968 20-1356): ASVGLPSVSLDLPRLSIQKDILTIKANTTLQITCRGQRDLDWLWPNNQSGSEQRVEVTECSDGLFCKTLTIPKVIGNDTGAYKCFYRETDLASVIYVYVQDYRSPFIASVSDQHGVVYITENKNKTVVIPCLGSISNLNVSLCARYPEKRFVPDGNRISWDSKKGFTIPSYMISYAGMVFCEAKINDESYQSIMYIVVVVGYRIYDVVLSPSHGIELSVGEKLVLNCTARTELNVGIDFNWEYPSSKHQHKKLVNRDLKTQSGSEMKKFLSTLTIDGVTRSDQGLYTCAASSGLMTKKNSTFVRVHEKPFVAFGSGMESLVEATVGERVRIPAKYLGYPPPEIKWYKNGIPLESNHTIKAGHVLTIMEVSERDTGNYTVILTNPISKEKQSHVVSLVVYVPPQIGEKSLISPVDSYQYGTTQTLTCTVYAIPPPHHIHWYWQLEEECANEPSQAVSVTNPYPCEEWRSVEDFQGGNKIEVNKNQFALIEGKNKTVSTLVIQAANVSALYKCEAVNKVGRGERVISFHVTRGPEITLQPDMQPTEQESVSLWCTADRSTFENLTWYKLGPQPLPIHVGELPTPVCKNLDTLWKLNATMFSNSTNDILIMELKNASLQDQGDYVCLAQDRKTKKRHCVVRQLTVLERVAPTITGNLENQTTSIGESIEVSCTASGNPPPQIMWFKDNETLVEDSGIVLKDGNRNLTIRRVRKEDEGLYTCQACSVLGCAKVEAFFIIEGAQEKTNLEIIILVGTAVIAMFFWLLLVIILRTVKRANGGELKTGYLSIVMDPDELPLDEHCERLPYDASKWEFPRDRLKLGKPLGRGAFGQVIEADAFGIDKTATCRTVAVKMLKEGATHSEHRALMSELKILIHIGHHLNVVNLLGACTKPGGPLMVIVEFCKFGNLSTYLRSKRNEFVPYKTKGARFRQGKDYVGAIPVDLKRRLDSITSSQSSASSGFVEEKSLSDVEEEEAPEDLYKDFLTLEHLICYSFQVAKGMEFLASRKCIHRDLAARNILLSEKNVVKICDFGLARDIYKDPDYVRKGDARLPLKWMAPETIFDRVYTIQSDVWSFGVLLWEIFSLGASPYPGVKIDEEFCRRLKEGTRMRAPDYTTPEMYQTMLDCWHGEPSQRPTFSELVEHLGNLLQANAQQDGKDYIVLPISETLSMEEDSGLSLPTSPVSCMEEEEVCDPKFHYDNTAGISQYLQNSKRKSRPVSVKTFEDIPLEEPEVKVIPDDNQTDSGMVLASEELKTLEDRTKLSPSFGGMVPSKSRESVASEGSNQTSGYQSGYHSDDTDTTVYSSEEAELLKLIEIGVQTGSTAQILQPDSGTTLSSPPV
Procedure, shortened: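 Read-out: phospho-KDR ELISA on cell lysates, quantified against a phospho-KDR standard, normalised to VEGF-stimulated DMSO (100%) and unstimulated (0%) wells, IC50 by 4-parameter fit. Cells were 24 h serum-starved HUVEC given compound for 1 h, then 100 ng/mL VEGF165 for 5 min.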

Chain of Human Axl (residues H473-A894 with Q764R) (P30530 473-894 Q764R): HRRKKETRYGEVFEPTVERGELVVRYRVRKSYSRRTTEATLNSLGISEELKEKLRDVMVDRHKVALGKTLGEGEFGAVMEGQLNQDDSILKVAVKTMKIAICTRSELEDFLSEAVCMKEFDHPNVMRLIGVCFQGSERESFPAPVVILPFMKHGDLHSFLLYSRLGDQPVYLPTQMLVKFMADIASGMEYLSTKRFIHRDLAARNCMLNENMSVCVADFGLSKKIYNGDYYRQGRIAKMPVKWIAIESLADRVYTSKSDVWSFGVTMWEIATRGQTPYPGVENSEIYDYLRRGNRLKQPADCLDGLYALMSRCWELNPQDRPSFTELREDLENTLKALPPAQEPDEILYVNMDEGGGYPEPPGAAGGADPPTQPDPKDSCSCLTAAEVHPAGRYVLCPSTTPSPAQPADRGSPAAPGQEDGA

Compound | IC50 [1] [nM] | IC50 (AXL) [nM] | IC50 (KDR) [nM]
CNC(=O)c1ccc2c(Oc3ccc(NC(=O)C4(C(=O)Nc5ccc(F)cc5)CC4)cc3)ccnc2c1 [Compound 165, 1-N′-(4-fluorophenyl)-1-N-[4-[7-(methylcarbamoyl)quinolin-4-yl]oxyphenyl]cyclopropane-1,1-dicarboxamide] | ≤ 10 | 10 to 100 | ≤ 10
COc1cc2nccc(Oc3ccc(NC(=O)C4(C(=O)Nc5ccc(F)cc5)CC4)cc3)c2cc1-c1cccc(C#N)c1F [Compound 175, 1-N-[4-[6-(3-cyano-2-fluorophenyl)-7-methoxyquinolin-4-yl]oxyphenyl]-1-N′-(4-fluorophenyl)cyclopropane-1,1-dicarboxamide] | 10 to 100 | 10 to 100 | 100 to 300
COc1cc2nccc(Oc3ccc(NC(=O)C4(C(=O)Nc5ccc(F)cc5)CC4)cc3)c2cc1-c1ccccn1 [Compound 176, 1-N′-(4-fluorophenyl)-1-N-[4-(7-methoxy-6-pyridin-2-ylquinolin-4-yl)oxyphenyl]cyclopropane-1,1-dicarboxamide] | ≤ 10 | 10 to 100 | 10 to 100
COc1cc2nccc(Oc3ccc(NC(=O)C4(C(=O)Nc5ccc(F)cc5)CC4)cc3)c2cc1-c1ccc(C)o1 [Compound 180, 1-N′-(4-fluorophenyl)-1-N-[4-[7-methoxy-6-(5-methylfuran-2-yl)quinolin-4-yl]oxyphenyl]cyclopropane-1,1-dicarboxamide] | 10 to 100 | ≤ 10 | 10 to 100
COc1cc2nccc(Oc3ccc(NC(=O)C4(C(=O)Nc5ccc(F)cc5)CC4)cc3)c2cc1-c1cnn(C)c1 [Compound 182, 1-N′-(4-fluorophenyl)-1-N-[4-[7-methoxy-6-(1-methylpyrazol-4-yl)quinolin-4-yl]oxyphenyl]cyclopropane-1,1-dicarboxamide] | 10 to 100 | ≤ 10 | ≤ 10
COc1cc2nccc(Oc3ccc(NC(=O)C4(C(=O)Nc5ccc(F)cc5)CC4)cc3)c2cc1-c1cnoc1 [Compound 183, 1-N′-(4-fluorophenyl)-1-N-[4-[7-methoxy-6-(1,2-oxazol-4-yl)quinolin-4-yl]oxyphenyl]cyclopropane-1,1-dicarboxamide] | 10 to 100 | 10 to 100 | 10 to 100
COc1cc2nccc(Oc3ccc(NC(=O)C4(C(=O)Nc5ccc(F)cc5)CC4)cc3)c2cc1-c1c(C)noc1C [Compound 184, 1-N-[4-[6-(3,5-dimethyl-1,2-oxazol-4-yl)-7-methoxyquinolin-4-yl]oxyphenyl]-1-N′-(4-fluorophenyl)cyclopropane-1,1-dicarboxamide] | 10 to 100 | 100 to 300 | > 300
COc1cc2nccc(Oc3ccc(NC(=O)C4(C(=O)Nc5ccc(F)cc5)CC4)cc3)c2cc1-c1ccn[nH]1 [Compound 185, 1-N′-(4-fluorophenyl)-1-N-[4-[7-methoxy-6-(1H-pyrazol-5-yl)quinolin-4-yl]oxyphenyl]cyclopropane-1,1-dicarboxamide] | 10 to 100 | 10 to 100 | ≤ 10
COc1cc2nccc(Oc3ccc(NC(=O)C4(C(=O)Nc5ccc(F)cc5)CC4)cc3)c2cc1-c1cn[nH]c1 [Compound 186, 1-N′-(4-fluorophenyl)-1-N-[4-[7-methoxy-6-(1H-pyrazol-4-yl)quinolin-4-yl]oxyphenyl]cyclopropane-1,1-dicarboxamide] | 10 to 100 | ≤ 10 | ≤ 10
COc1cc2nccc(Oc3ccc(NC(=O)C4(C(=O)Nc5ccc(F)cc5)CC4)cc3)c2cc1C1CC1 [Compound 187, 1-N-[4-(6-cyclopropyl-7-methoxyquinolin-4-yl)oxyphenyl]-1-N′-(4-fluorophenyl)cyclopropane-1,1-dicarboxamide] | ≤ 10 | 10 to 100 | 10 to 100
COc1cc2nccc(Oc3ccc(NC(=O)C4(C(=O)Nc5ccc(F)cc5)CC4)cc3)c2cc1-c1ccc[nH]1 [Compound 188, 1-N′-(4-fluorophenyl)-1-N-[4-[7-methoxy-6-(1H-pyrrol-2-yl)quinolin-4-yl]oxyphenyl]cyclopropane-1,1-dicarboxamide] | 10 to 100 | ≤ 10 | 10 to 100
COc1cc2nccc(Oc3ccc(NC(=O)C4(C(=O)Nc5ccc(F)cc5)CC4)cc3)c2cc1C1(O)CN(C(=O)OC(C)(C)C)C1 [Compound 195, tert-butyl 3-[4-[4-[[1-[(4-fluorophenyl)carbamoyl]cyclopropanecarbonyl]amino]phenoxy]-7-methoxyquinolin-6-yl]-3-hydroxyazetidine-1-carboxylate] | 10 to 100 | 100 to 300 | 10 to 100
COc1cc2nccc(Oc3ccc(NC(=O)C4(C(=O)Nc5ccc(F)cc5)CC4)cc3)c2cc1C1(O)COC1 [Compound 196, 1-N′-(4-fluorophenyl)-1-N-[4-[6-(3-hydroxyoxetan-3-yl)-7-methoxyquinolin-4-yl]oxyphenyl]cyclopropane-1,1-dicarboxamide] | ≤ 10 | 10 to 100 | 10 to 100
COc1cc2nccc(Oc3ccc(NC(=O)C4(C(=O)Nc5ccc(F)cc5)CC4)cc3)c2cc1C1(O)CNC1 [Compound 197, 1-N′-(4-fluorophenyl)-1-N-[4-[6-(3-hydroxyazetidin-3-yl)-7-methoxyquinolin-4-yl]oxyphenyl]cyclopropane-1,1-dicarboxamide] | 10 to 100 | 100 to 300 | > 300
COc1cc2nccc(Oc3ccc(NC(=O)C4(C(=O)Nc5ccc(F)cc5)CC4)cc3)c2cc1N1CCC1 [Compound 198, 1-N-[4-[6-(azetidin-1-yl)-7-methoxyquinolin-4-yl]oxyphenyl]-1-N′-(4-fluorophenyl)cyclopropane-1,1-dicarboxamide] | 10 to 100 | 10 to 100 | 10 to 100
COc1cc2nccc(Oc3ccc(NC(=O)C4(C(=O)Nc5ccc(F)cc5)CC4)cc3)c2cc1N1CC(O)C1 [Compound 199, 1-N′-(4-fluorophenyl)-1-N-[4-[6-(3-hydroxyazetidin-1-yl)-7-methoxyquinolin-4-yl]oxyphenyl]cyclopropane-1,1-dicarboxamide] | ≤ 10 | ≤ 10 | ≤ 10
COc1cc2nccc(Oc3ccc(NC(=O)C4(C(=O)Nc5ccc(F)cc5)CC4)cc3)c2cc1N1CC(F)(F)C1 [Compound 200, 1-N-[4-[6-(3,3-difluoroazetidin-1-yl)-7-methoxyquinolin-4-yl]oxyphenyl]-1-N′-(4-fluorophenyl)cyclopropane-1,1-dicarboxamide] | 10 to 100 | 10 to 100 | 10 to 100
COc1cc2nccc(Oc3ccc(NC(=O)C4(C(=O)Nc5ccc(F)cc5)CC4)cc3)c2cc1-c1cccnc1 [Compound 201, 1-N′-(4-Fluorophenyl)-1-N-[4-(7-methoxy-6-pyridin-3-ylquinolin-4-yl)oxyphenyl]cyclopropane-1,1-dicarboxamide] | ≤ 10 | 10 to 100 | 10 to 100
COc1cc2nccc(Oc3ccc(NC(=O)C4(C(=O)Nc5ccc(F)cc5)CC4)cc3)c2cc1-c1ccncc1 [Compound 202, 1-N′-(4-Fluorophenyl)-1-N-[4-(7-methoxy-6-pyridin-4-ylquinolin-4-yl)oxyphenyl]cyclopropane-1,1-dicarboxamide] | 10 to 100 | 10 to 100 | 10 to 100
COc1cc2nccc(Oc3ccc(NC(=O)C4(C(=O)Nc5ccc(F)cc5)CC4)cc3)c2cc1S(N)(=O)=O [Compound 206, 1-N′-(4-Fluorophenyl)-1-N-[4-(7-methoxy-6-sulfamoylquinolin-4-yl)oxyphenyl]cyclopropane-1,1-dicarboxamide] | ≤ 10 | ≤ 10 | ≤ 10
COc1cc2nccc(Oc3ccc(NC(=O)C4(C(=O)Nc5ccc(F)cc5)CC4)cc3)c2cc1S(C)(=O)=O [Compound 210, 1-N′-(4-Fluorophenyl)-1-N-[4-(7-methoxy-6-methylsulfonylquinolin-4-yl)oxyphenyl]cyclopropane-1,1-dicarboxamide] | ≤ 10 | 10 to 100 | ≤ 10
COc1cc2nccc(Oc3ccc(NC(=O)C4(C(=O)Nc5ccc(F)cc5)CC4)cc3)c2cc1-c1nnco1 [Compound 220, 1-N′-(4-Fluorophenyl)-1-N-[4-[7-methoxy-6-(1,3,4-oxadiazol-2-yl)quinolin-4-yl]oxyphenyl]cyclopropane-1,1-dicarboxamide] | ≤ 10 | ≤ 10 | ≤ 10
